Data reported in patent publication US20220409617A1, “Drug Formulations and Methods of Treatment for Metabolic Disorders” (The Regents of the University of California, priority 2019, published 2022).

Tests used:
3T3-L1 adipocytes = experiment: Insulin-stimulated 2-deoxyglucose uptake; assay type: cell-based, mouse; settings: 3 h, 893 10 μM, MK-2206 2 μM
Procedure: (§1) 3T3-L1 cells were maintained in DMEM with 10% FBS and 1% penicillin-streptomycin until induced to differentiate. 3T3-L1 pre-adipocytes were differentiated as described in (M. P. Valley, et al., Anal. Biochem. 505: 43-50, 2016, the disclosure of which is incorporated herein by reference) with slight modifications. Briefly, pre-adipocytes were grown to confluence. After 2 d, cells were induced with maintenance media containing 500 μM IBMX (15879, Sigma-Aldrich, St. Louis, Mo.), 1 μM dexamethasone (D4902, Sigma-Aldrich), 5 μg/mL bovine insulin (10516, Sigma-Aldrich), and 5 μM troglitazone (50-115-0786, ApexBio). Media was changed every 2-3 d for 7 d. On day 7 post-induction, media was changed to maintenance media+5 μg/mL bovine insulin. On day 9 post-induction, media was changed to maintenance media. Mature adipocytes were used 12-14 d post-induction for all experiments. LSL-KrasG12D mouse embryonic fibroblasts (MEFs) with and without Cre-mediated deletion of the STOP cassette were obtained from David Tuveson (Cold Spring Harbor Laboratory, Cold Spring Harbor N.Y., USA) in 2000. p53^flox/flox MEFs were derived in house (2015) from C57BL/6 mice using standard techniques and immortalized by transient expression of Cre recombinase and deletion of p53. MEFs were cultured and maintained in DMEM with 10% FBS and 1% penicillin-streptomycin. […]

DRP1 = DRP1 recruitment to mitochondria (DRP1/citrate synthase co-localization) and DRP1 western blot; assay type: cell-based, mouse; settings: MEFs; 893 5 μM or YM201636 800 nM 3 h, then palmitate 250 μM 3 h
Procedure: Mature adipocytes were serum starved for 16 h then treated with vehicle, ceramide (50 or 100 μM), or sphingolipid-like compound 893 (5 or 10 μM) in serum-free media supplemented with 0.2% fatty-acid free BSA for 3 h after which 100 nM insulin was added for 15 min. To determine total DRP1 protein levels, 100,000 MEFs were seeded into a 6-well plate for 16 h, pre-treated for 3 h with vehicle or sphingolipid-like compound 893 (5 μM) followed by a 3 h incubation in 1% BSA+ethanol or BSA-palmitate (250 μM). Cells were washed once with cold PBS, then lysed in cold RIPA buffer (140 mM NaCl, 10 mM Tris pH 8.0, 1% Triton X-100, 0.1% SDS, 1% sodium deoxycholate) with cOmplete™ protease inhibitor (Cat no. 11697498001, Millipore Sigma, St. Louis, Mo.) and phosSTOP™ phosphatase inhibitor (Cat no. 4906837001, Millipore Sigma). Samples were incubated on ice for 10 min and insoluble material removed by centrifugation (9000×g for 10 min at 4° C.). Protein content was quantified in the supernatant using the Pierce™ BCA Protein Assay Kit (Thermo-Fisher Scientific, Waltham, Mass.). Equal amounts of protein were prepared in NuPAGE® LDS Sample Buffer (NP0007, Invitrogen) containing 50 mM DTT, and heated at 70° C. for 10 min. Proteins were resolved on a NuPAGE® 4-12% Bis-Tris protein gel (NP0336, Invitrogen, Carlsbad, Calif.) and subsequently transferred to a nitrocellulose membrane. Membranes were blocked in 5% BSA in TBST for 1 h, then probed with primary antibodies overnight at 4° C. […] Band intensity was quantified using Image Studio Lite V5.2 software (Li-COR).
MEFs were washed twice with PBS and fixed with 4% paraformaldehyde for 10 min at RT. […] NADH/NADPH autofluorescence was detected with 740 nm excitation and 450±50 nm detectors using a Mai Tai two-photon laser. Fluorescence microscopy was performed on a Zeiss LSM 780 confocal using a 63× oil objective with a […] numerical aperture (NA) or using a Nikon TE2000-S inverted epifluorescence microscope with a 100× oil objective (1.3 NA) and a Photometrics CoolSNAP ES2 monochrome CCD camera. […]

AKT = experiment: Insulin-stimulated AKT activation, western blot; assay type: cell-based, mouse; settings: 3T3-L1 adipocytes; 3 h pre-treatment, C2-ceramide 50 or 100 μM, 893 5 or 10 μM; insulin 100 nM 15 min
Procedure: as §1, with “experiments.” for “experiments. LSL-KrasG12D mouse embryonic fibroblasts (MEFs) with and without Cre-mediated deletion of the STOP cassette were obtained from David Tuveson (Cold Spring Harbor Laboratory, Cold Spring Harbor N.Y., USA) in 2000. p53^flox/flox MEFs were derived in house (2015) from C57BL/6 mice using standard techniques and immortalized by transient expression of Cre recombinase and deletion of p53. MEFs were cultured and maintained in DMEM with 10% FBS and 1% penicillin-streptomycin.”
Mature adipocytes were serum starved for 16 h then treated with vehicle, ceramide (50 or 100 μM), or sphingolipid-like compound 893 (5 or 10 μM) in serum-free media supplemented with 0.2% fatty-acid free BSA for 3 h after which 100 nM insulin was added for 15 min. […] Protein content was quantified in the supernatant using the Pierce™ BCA Protein Assay Kit (Thermo-Fisher Scientific, Waltham, Mass.). […]

[1] = Home-cage feeding study with suboptimal leptin (leptin sensitization); assay type: in vivo, mouse; settings: lean chow-fed 18 week old mice; leptin 2 mg/kg i.p. or 893 120 mg/kg by gavage
Text: Leptin is secreted by adipocytes in proportion to their triglyceride content, signaling to the CNS when peripheral energy stores are full and food consumption should decrease. In HFD-fed mice, chronic increases in adiposity lead to elevations in circulating leptin with no accompanying decrease in food intake, a state that has been termed leptin-resistant. Reducing leptin levels in the blood restores leptin signaling in the hypothalamus (S. Zhao, et al., 2019, cited supra). Thus, the sphingolipid-like compound 893 should function as a leptin-sensitizing agent. To test this model, 18 week old lean, male C57BL/6J mice were treated intraperitoneally with a suboptimal dose of recombinant leptin at ZT8.5 and food intake and body weight measured over the next 18 h. […] In summary, the reduction in food intake in sphingolipid-like compound 893-treated mice is consistent with the reversal of mitochondrial fragmentation in the hypothalamus and likely due in part to the re-sensitization of anorexigenic POMG neurons to leptin when plasma leptin levels are decreased.
Mice were singly housed and allowed to acclimate for 72 h before food intake was monitored. Food consumption was determined by monitoring the weight of food in the hopper. Initial food and body weight measurements were taken at ZT9 and final measurements were taken 16 h later to capture the active period where most consumption occurred. Home cage feeding studies were performed with C57BL/6J mice maintained on a HFD for 24 weeks (33 weeks of age), or ob/ob mice at 8 weeks of age. Mice received vehicle or 120 mg/kg sphingolipid-like compound 893 by gavage at ZT8.5. For experiments involving leptin, 18 week old, SD fed (16% kcal from fat, 2020×, Envigo) C57BL/6J mice received vehicle or 120 mg/kg sphingolipid-like compound 893 by gavage at ZT8.5. […] One ob/ob mouse died during Echo MRI for unknown reasons after 6 d of treatment with sphingolipid-like compound 893; data from this mouse was analyzed prior to death.

NC1(c2ccc(-c3nc4ccn5c(=O)[nH]nc5c4cc3-c3ccccc3)cc2)CCC1 [MK-2206, reference compound]
Insulin-stimulated glucose uptake (3T3-L1 adipocytes): impeded insulin-stimulated glucose uptake in adipocytes

Nc1ccc(C(=O)Nc2cccc(-c3nc(N4CCOCC4)c4oc5ncccc5c4n3)c2)cn1 [YM201636, reference compound]
DRP1 recruitment to mitochondria in response to palmitate (DRP1): prevented DRP1 recruitment

CCCCCCCCCCCCC/C=C/[C@@H](O)[C@H](CO)NC(C)=O [ceramide, C2-ceramide, reference compound]
Insulin-stimulated AKT activation (AKT): interfered with insulin-stimulated AKT activation

B1: leptin: recombinant mouse leptin (498-OB, R&D Systems) (protein, UniProt P41160 22-167, looked up)
Leptin: VPIQKVQDDTKTLIKTIVTRINDISHTQSVSAKQRVTGLDFIPGLHPILSLSKMDQTLAVYQQVLTSLPSQNVLQIANDLENLRDLLHLLAFSKSCSLPQTSGLQKPESLDGVLEASLYSTEVVALSRLQGSLQDILQQLDVSPEC
Food intake and body weight over 18 h, single agent [1]: not sufficient to decrease food intake or body weight
